Measurements as given in patent US6495529B1 (Warner-Lambert Company, priority 1998, dated 2002).
pKi: −log10 of the molar value.

Experiments:
[1] = tested on: mongrel dogs; experiment: Intravenous dose increasing mean arterial pressure 10% in anesthetized dogs; conditions: anesthetized dog, i.v.
[2] = biological target: α2-receptors; experiment: ALPHA-2 binding, p-125Iodoclonidine, canine brain (frontal cortex) membranes; design: species or system dog
Method: Membranes of mongrel dogs were harvested from the canine frontal cortex and prepared as described for lung except that the final membrane protein concentration was adjusted to 0.5 mg/ml.
Nonspecific binding was determined in separate incubations in the presence of 10 μM phentolamine. The final concentration of p-iodoclonidine was 44-45 pM in competition studies and between 50 pM and 10 nM in saturation experiments. Bound and free […] were separated and the bound quantitated as described above for the ICYP assays.
All data were analyzed with the aid of microcomputer nonlinear curve fitting programs (PRISM 2.0, Graphpad Software, San Diego Calif.).
The receptors resident in each of the three membrane preparations were evaluated by standard saturation analysis following the addition of increasing concentrations of the appropriate radioligand.
The radio ligand added for subsequent α2-displacement assays was adjusted to evaluate only the high affinity receptor. Contributions from p-iodoclonidine binding to imidazoline receptors in the α2-displacement assay were evaluated with epinephrine.

[3] = tested on: Swiss-Webster mice; conditions: mice pretreated with 0.01, 0.1 or 1.0 mg/kg triprolidine

CN[C@@H](C)[C@H](O)c1ccccc1 [(−)-ephedrine]
Intravenous Dose Needed to Increase MAP 10% [1]: 0.1 mg/kg

CNC[C@H](O)c1cccc(O)c1 [(−)-phenylephrine]
modification of stimulant or depressant effects by triprolidine pretreatment [3]: did not show significant modification of stimulant or depressant effects
Intravenous Dose Needed to Increase MAP 10% [1]: 0.01 mg/kg
